# Assay results: PubChem BioAssay AID504335 (Southern Research Specialized Biocontainment Screening …, 2011)
# Active and inactive are the calls of the source. The rule behind the calls is not given here.
# Tested on: not listed separately
# Experiment: dose response, cytotoxicity control for M. tuberculosis inhibitor project, purified and synthesized compounds (AID 504335)
# Conditions: mammalian cell cytotoxicity, viability; at 100 µM (top of the series)
row,Structure (SMILES),viability
1,CCOC(=O)COn1c2c(c3c4no[n+]([O-])c4ccc31)CCCC2,87.8% (inactive)
2,O=C(CSc1nc2ccccc2c(=O)[nH]1)NCc1ccc(Cl)cc1,83% (inactive)
3,CCc1ccc(/C=C2/C(=O)N(C)C(=S)N2CC(=O)OC)s1,92% (inactive)
4,Cc1ccc(NC(=O)C2C3/C=C\CCCCC32)cc1C (centres undefined),87.6% (inactive)
5,O=C(/C=C\c1cccs1)N1CCN(Cc2ccc3c(c2)OCO3)CC1,87.7% (inactive)
6,COc1cc(NC(=O)C/C(C)=N/NC(=O)c2ccccn2)c(OC)cc1Cl,92.4% (inactive)
7,CCOC(=O)COc1ccc(/C=C2\NC(=S)N(CC)C2=O)cc1,94.5% (inactive)
8,Cc1nc(SCC(=O)NC2CCCCC2)[nH]c(=O)c1C,88.8% (inactive)
9,COC(=O)C1CC(=O)N(c2ccc(OCc3ccccc3Cl)cc2)C1 (centres undefined),90.6% (inactive)
10,COC(=O)C(C)Oc1ccc(-c2nccc(-c3ccccn3)n2)cc1 (centres undefined),95.7% (inactive)
11,COC(=O)CCc1nc2c(C#N)c(-c3ccc(Cl)cc3)ccn2n1,99.2% (inactive)
12,O=C(CSc1nc2ccccc2c(=O)[nH]1)NC1CCCCC1,81.8% (inactive)

# Tested on: mammalian cell cytotoxicity, viability
# Experiment: as above
# Conditions: not given
row,Structure (SMILES),CC50
1,COC(=O)c1cc(=O)n(-c2ccc(F)cc2)c(=Nc2ccc(F)cc2)s1,25.7 µM
2,CCC(C)Nc1ccc(NC(C)CC)cc1 (centres undefined),14.3 µM
3,Cc1ccc2ccc3ccc(C)nc3c2n1,58.5 µM
4,O=C(NCC(c1cccs1)N1CCOCC1)c1cc([N+](=O)[O-])cc([N+](=O)[O-])c1 (centres undefined),96.7 µM
5,CC(C)NC(=O)c1sc(=S)n2c1[nH]c(=O)c1ccc(C(=O)NCCc3ccc(Cl)cc3)cc12,99.9 µM
6,CC(=NCc1ccc2c(c1)OCO2)C1=C(O)c2ccccc2C1=O,> 100 µM (inactive)
7,S=c1nc[nH]c2nc[nH]c12,38.7 µM
8,Cc1ccc2c(c1)c(C1=c3ccccc3=NC1=O)c(O)n2C,10.1 µM
9,Oc1ccccc1/C=N/Nc1ccnc(SCc2ccccc2)n1,93.8 µM
10,CCOC(=O)c1ccc(NC(=O)Cn2ncc(Cl)c(Cl)c2=O)cc1,7.71 µM
11,Cc1cccc(/C=C/C(=O)c2ccc([N+](=O)[O-])o2)c1,20.2 µM
12,CNc1nc(SCc2ccccc2Cl)nc2c1CCCC2,36 µM
